Data as given in patent US10597388B2, “Pyridazinone herbicides” (FMC CORPORATION, priority 2014, dated 2020).

How the values were obtained:
Type in all cases: in vivo
[1] = test system: oat, wild (wild oat, Avena fatua); experiment: Test C greenhouse herbicide test, postemergence
Summary of the method: (§1)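 Seedlings are raised in pots of peat moss–vermiculite medium with starter nutrients, then receive postemergence test chemical at the 1- to 4-leaf stage. They are kept in the greenhouse 13 to 15 d and scored visually versus controls, 0 meaning no effect and 100 complete control.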

kochia (Kochia scoparia) = experiment: Test C greenhouse herbicide test, postemergence
Summary of the method: as §1

[2] = test system: nutsedge, yellow (yellow nutsedge, Cyperus esculentus); experiment: Test C greenhouse herbicide test, pre- and postemergence
Summary of the method: (§2)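 Pre- and postemergence greenhouse screen; values are visual control ratings, 0 meaning no effect and 100 complete kill, assigned relative to untreated plants after 13 to 15 d.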

[3] = test system: lambsquarters (Chenopodium album); experiment: as above
Summary of the method: as §2

[4] = test system: foxtail, giant (giant foxtail, Setaria faberii); experiment: as above
Summary of the method: as §2

[5] = test system: wheat (winter wheat, Triticum aestivum); experiment: as above
Summary of the method: as §2

[6] = test system: waterhemp (common waterhemp, Amaranthus rudis); experiment: as above
Summary of the method: as §2

[7] = test system: blackgrass (Alopecurus myosuroides); experiment: as above
Summary of the method: as §2

[8] = test system: oilseed rape (Brassica napus); experiment: as above
Summary of the method: as §2

[9] = test system: barnyardgrass (Echinochloa crus-galli); experiment: as above
Summary of the method: as §2

[10] = test system: crabgrass, large (large crabgrass, Digitaria sanguinalis); experiment: as above
Summary of the method: as §2

corn (Zea mays) = experiment: as above
Summary of the method: as §2

[11] = test system: pigweed (Amaranthus retroflexus); experiment: as above
Summary of the method: as §2

[12] = test system: morningglory (Ipomoea coccinea); experiment: as above
Summary of the method: as §2

[13] = test system: velvetleaf (Abutilon theophrasti); experiment: as above
Summary of the method: as §2

[14] = test system: johnsongrass (Sorghum halepense); experiment: as above
Summary of the method: as §2

[15] = Postemergence, 31 g ai/ha, scale 0 to 100 (0 no effect, 100 complete control)
[16] = Postemergence, 62 g ai/ha, 0 to 100 scale (0 no effect, 100 complete control)
[17] = Postemergence, 250 g ai/ha, scale 0 to 100, 0 no effect, 100 complete control, 13 to 15 d
[18] = postemergence, 125 g ai/ha, scale 0 to 100, 0 no effect, 100 complete control
[19] = Preemergence, 31 g ai/ha, scale 0 to 100, 0 is no effect, 100 is complete control
[20] = Preemergence, 62 g ai/ha, scale 0 to 100, 0 is no effect, 100 is complete control
[21] = Preemergence, 125 g ai/ha, scale 0 to 100, 0 is no effect, 100 is complete control
[22] = Preemergence, 250 g ai/ha, scale 0 to 100 (0 no effect, 100 complete control)
[23] = Postemergence, 125 g ai/ha, scale 0 to 100, 0 is no effect, 100 is complete control
[24] = Postemergence, 16 g ai/ha, scale 0 to 100 (0 no effect, 100 complete control)

## COc1nn(C)c(=O)c(-c2c(C)ccc3ccccc23)c1OC(C)=O [Compound 138]
[1]; [15]
  Plant response rating, Oat, Wild: 50
[1]; [16]
  Oat, Wild plant response rating: 80
[1]; [17]
  Plant response rating, Oat, Wild: 90
[1]; [18]
  Oat, Wild plant response rating: 80
Kochia (Kochia scoparia); [15]
  Plant response rating, Kochia: 90
Kochia (Kochia scoparia); [16]
  Kochia plant response rating: 95
Kochia (Kochia scoparia); [17]
  Plant response rating, Kochia: 100
Kochia (Kochia scoparia); [18]
  Kochia plant response rating: 100
[2]; [15]
  Plant response rating, Nutsedge, Yellow: 45
[2]; [16]
  Nutsedge, Yellow plant response rating: 65
[2]; [17]
  Plant response rating, Nutsedge, Yellow: 80
[2]; [19]
  Plant response rating, Nutsedge, Yellow: 5
[2]; [20]
  Plant response rating, Nutsedge, Yellow: 60
[2]; [21]
  Plant response rating, Nutsedge, Yellow: 95
[2]; [22]
  Nutsedge, Yellow plant response rating: 90
[2]; [18]
  Nutsedge, Yellow plant response rating: 75
[3]; [15]
  Plant response rating, Lambsquarters: 90
[3]; [16]
  Lambsquarters plant response rating: 90
[3]; [17]
  Plant response rating, Lambsquarters: 98
[3]; [19]
  Plant response rating, Lambsquarters: 95
[3]; [20]
  Plant response rating, Lambsquarters: 95
[3]; [21]
  Plant response rating, Lambsquarters: 100
[3]; [22]
  Lambsquarters plant response rating: 100
[3]; [18]
  Lambsquarters plant response rating: 95
[4]; [15]
  Plant response rating, Foxtail, Giant: 35
[4]; [16]
  Foxtail, Giant plant response rating: 60
[4]; [17]
  Plant response rating, Foxtail, Giant: 80
[4]; [19]
  Plant response rating, Foxtail, Giant: 80
[4]; [20]
  Plant response rating, Foxtail, Giant: 85
[4]; [21]
  Plant response rating, Foxtail, Giant: 100
[4]; [22]
  Foxtail, Giant plant response rating: 100
[4]; [18]
  Foxtail, Giant plant response rating: 65
[5]; [15]
  Plant response rating, Wheat: 60
[5]; [16]
  Wheat plant response rating: 40
[5]; [17]
  Plant response rating, Wheat: 90
[5]; [19]
  Plant response rating, Wheat: 0
[5]; [20]
  Plant response rating, Wheat: 35
[5]; [21]
  Plant response rating, Wheat: 5
[5]; [22]
  Wheat plant response rating: 5
[5]; [18]
  Wheat plant response rating: 80
[6]; [15]
  Plant response rating, Waterhemp: 90
[6]; [16]
  Waterhemp plant response rating: 95
[6]; [17]
  Plant response rating, Waterhemp: 100
[6]; [19]
  Plant response rating, Waterhemp: 95
[6]; [20]
  Plant response rating, Waterhemp: 100
[6]; [21]
  Plant response rating, Waterhemp: 98
[6]; [22]
  Waterhemp plant response rating: 100
[6]; [18]
  Waterhemp plant response rating: 98
[7]; [15]
  Plant response rating, Blackgrass: 5
[7]; [16]
  Blackgrass plant response rating: 5
[7]; [17]
  Plant response rating, Blackgrass: 80
[7]; [19]
  Plant response rating, Blackgrass: 45
[7]; [20]
  Plant response rating, Blackgrass: 55
[7]; [21]
  Plant response rating, Blackgrass: 40
[7]; [22]
  Blackgrass plant response rating: 90
[7]; [18]
  Blackgrass plant response rating: 50
[8]; [15]
  Plant response rating, Oilseed Rape: 95
[8]; [16]
  Oilseed Rape plant response rating: 98
[8]; [17]
  Plant response rating, Oilseed Rape: 98
[8]; [19]
  Plant response rating, Oilseed Rape: 85
[8]; [20]
  Plant response rating, Oilseed Rape: 90
[8]; [21]
  Plant response rating, Oilseed Rape: 90
[8]; [22]
  Oilseed Rape plant response rating: 100
[8]; [18]
  Oilseed Rape plant response rating: 98
[9]; [15]
  Plant response rating, Barnyardgrass: 25
[9]; [16]
  Barnyardgrass plant response rating: 25
[9]; [23]
  Plant response rating, Barnyardgrass: 30
[9]; [17]
  Plant response rating, Barnyardgrass: 40
[9]; [19]
  Plant response rating, Barnyardgrass: 30
[9]; [20]
  Plant response rating, Barnyardgrass: 55
[9]; [21]
  Plant response rating, Barnyardgrass: 90
[9]; [22]
  Barnyardgrass plant response rating: 98
[10]; [15]
  Plant response rating, Crabgrass, Large: 15
[10]; [16]
  Crabgrass, Large plant response rating: 20
[10]; [17]
  Plant response rating, Crabgrass, Large: 25
[10]; [19]
  Plant response rating, Crabgrass, Large: 0
[10]; [20]
  Plant response rating, Crabgrass, Large: 40
[10]; [21]
  Plant response rating, Crabgrass, Large: 70
[10]; [22]
  Crabgrass, Large plant response rating: 80
[10]; [18]
  Crabgrass, Large plant response rating: 20
Corn (Zea mays); [15]
  Plant response rating, Corn: 0
Corn (Zea mays); [16]
  Corn plant response rating: 0
Corn (Zea mays); [17]
  Plant response rating, Corn: 15
Corn (Zea mays); [19]
  Plant response rating, Corn: 5
Corn (Zea mays); [20]
  Plant response rating, Corn: 5
Corn (Zea mays); [21]
  Plant response rating, Corn: 5
Corn (Zea mays); [22]
  Corn plant response rating: 15
Corn (Zea mays); [18]
  Corn plant response rating: 15
[11]; [15]
  Plant response rating, Pigweed: 80
[11]; [16]
  Pigweed plant response rating: 85
[11]; [17]
  Plant response rating, Pigweed: 98
[11]; [19]
  Plant response rating, Pigweed: 100
[11]; [20]
  Plant response rating, Pigweed: 98
[11]; [21]
  Plant response rating, Pigweed: 100
[11]; [22]
  Pigweed plant response rating: 100
[11]; [18]
  Pigweed plant response rating: 90
[12]; [15]
  Plant response rating, Morningglory: 98
[12]; [16]
  Morningglory plant response rating: 100
[12]; [17]
  Plant response rating, Morningglory: 100
[12]; [19]
  Plant response rating, Morningglory: 80
[12]; [20]
  Plant response rating, Morningglory: 90
[12]; [21]
  Plant response rating, Morningglory: 98
[12]; [22]
  Morningglory plant response rating: 98
[12]; [18]
  Morningglory plant response rating: 98
[13]; [15]
  Plant response rating, Velvetleaf: 85
[13]; [16]
  Velvetleaf plant response rating: 90
[13]; [17]
  Plant response rating, Velvetleaf: 98
[13]; [19]
  Plant response rating, Velvetleaf: 85
[13]; [20]
  Plant response rating, Velvetleaf: 90
[13]; [21]
  Plant response rating, Velvetleaf: 98
[13]; [22]
  Velvetleaf plant response rating: 100
[13]; [18]
  Velvetleaf plant response rating: 95
[14]; [15]
  Plant response rating, Johnsongrass: 10
[14]; [16]
  Johnsongrass plant response rating: 10
[14]; [17]
  Plant response rating, Johnsongrass: 20
[14]; [19]
  Plant response rating, Johnsongrass: 10
[14]; [20]
  Plant response rating, Johnsongrass: 15
[14]; [21]
  Plant response rating, Johnsongrass: 30
[14]; [22]
  Johnsongrass plant response rating: 20
[14]; [18]
  Johnsongrass plant response rating: 20

## COC(=O)Oc1cnn(C)c(=O)c1-c1c(C)ccc2ccccc12 [Compound 143]
[1]; [24]
  Plant response rating, Oat, Wild: 30
[1]; [15]
  Plant response rating, Oat, Wild: 40
[1]; [16]
  Oat, Wild plant response rating: 55
[1]; [18]
  Oat, Wild plant response rating: 60
Kochia (Kochia scoparia); [24]
  Plant response rating, Kochia: 0
Kochia (Kochia scoparia); [15]
  Plant response rating, Kochia: 30
Kochia (Kochia scoparia); [16]
  Kochia plant response rating: 60
Kochia (Kochia scoparia); [18]
  Kochia plant response rating: 60
[2]; [24]
  Plant response rating, Nutsedge, Yellow: 10
[2]; [15]
  Plant response rating, Nutsedge, Yellow: 10
[2]; [16]
  Nutsedge, Yellow plant response rating: 40
[2]; [18]
  Nutsedge, Yellow plant response rating: 35
[3]; [24]
  Plant response rating, Lambsquarters: 10
[3]; [15]
  Plant response rating, Lambsquarters: 50
[3]; [16]
  Lambsquarters plant response rating: 60
[3]; [18]
  Lambsquarters plant response rating: 75
[4]; [24]
  Plant response rating, Foxtail, Giant: 5
[4]; [15]
  Plant response rating, Foxtail, Giant: 5
[4]; [16]
  Foxtail, Giant plant response rating: 5
[4]; [18]
  Foxtail, Giant plant response rating: 20
[5]; [24]
  Plant response rating, Wheat: 0
[5]; [15]
  Plant response rating, Wheat: 5
[5]; [16]
  Wheat plant response rating: 35
[5]; [18]
  Wheat plant response rating: 15
[6]; [24]
  Plant response rating, Waterhemp: 25
[6]; [15]
  Plant response rating, Waterhemp: 40
[6]; [16]
  Waterhemp plant response rating: 55
[6]; [18]
  Waterhemp plant response rating: 90
[7]; [24]
  Plant response rating, Blackgrass: 0
[7]; [15]
  Plant response rating, Blackgrass: 5
[7]; [16]
  Blackgrass plant response rating: 5
[7]; [18]
  Blackgrass plant response rating: 20
[8]; [24]
  Plant response rating, Oilseed Rape: 60
[8]; [15]
  Plant response rating, Oilseed Rape: 0
[8]; [16]
  Oilseed Rape plant response rating: 0
[8]; [18]
  Oilseed Rape plant response rating: 5
[9]; [24]
  Plant response rating, Barnyardgrass: 15
[9]; [15]
  Plant response rating, Barnyardgrass: 20
[9]; [16]
  Barnyardgrass plant response rating: 25
[9]; [23]
  Plant response rating, Barnyardgrass: 30
[10]; [24]
  Plant response rating, Crabgrass, Large: 5
[10]; [15]
  Plant response rating, Crabgrass, Large: 10
[10]; [16]
  Crabgrass, Large plant response rating: 10
[10]; [18]
  Crabgrass, Large plant response rating: 30
Corn (Zea mays); [24]
  Plant response rating, Corn: 0
Corn (Zea mays); [15]
  Plant response rating, Corn: 5
Corn (Zea mays); [16]
  Corn plant response rating: 0
Corn (Zea mays); [18]
  Corn plant response rating: 5
[11]; [24]
  Plant response rating, Pigweed: 50
[11]; [15]
  Plant response rating, Pigweed: 50
[11]; [16]
  Pigweed plant response rating: 65
[11]; [18]
  Pigweed plant response rating: 75
[12]; [24]
  Plant response rating, Morningglory: 30
[12]; [15]
  Plant response rating, Morningglory: 50
[12]; [16]
  Morningglory plant response rating: 65
[12]; [18]
  Morningglory plant response rating: 70
[13]; [24]
  Plant response rating, Velvetleaf: 30
[13]; [15]
  Plant response rating, Velvetleaf: 20
[13]; [16]
  Velvetleaf plant response rating: 25
[13]; [18]
  Velvetleaf plant response rating: 50
[14]; [24]
  Plant response rating, Johnsongrass: 10
[14]; [15]
  Plant response rating, Johnsongrass: 10
[14]; [16]
  Johnsongrass plant response rating: 25
[14]; [18]
  Johnsongrass plant response rating: 20
